Assay results from patent publication US9862713B2, “Substituted bicyclic heteroaryl compounds as RXR agonists” (CONNEXIOS LIFE SCIENCES PVT. LTD., priority 2014, dated 2018).

Legend:
[1] = system: HL-60 promyelocytic leukemia cell line; experiment: HL-60 differentiation (NBT reduction); format: cell-based; settings: 72 h culture, NBT reduction at 540 nm
Procedure: Progression of promyelocytic leukemia can be abrogated by their differentiation. […] In order to estimate the differentiating ability of compound-40, HL-60 promyelocytic leukemia cell line was used as an in vitro model of the disease. HL-60 cells were cultured for 72 h as either control or under treatment as mentioned. After 72 h of culture, cells were exposed to nitro blue tetrazolium (NBT) solution containing phorbol myristate acetate (PMA) for 1 h at 37° C. Differentiated cells have increased oxidative burst potential which reduces NBT. Levels of reduced NBT were measured at 540 nm absorption.

[2] = system: hRXR α, β, or γ; experiment: Transactivation assay (RARE-Luc dual luciferase reporter in HEK-293 cells), activity relative to LG268; format: cell-based, human; settings: compound at 300 nM, 24 h; luciferase activity expressed relative to LG268
Summary of the method: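 HEK-293 cells co-transfected with hRXR α, β or γ expression vector, RARE-firefly luciferase and renilla luciferase; 24 h later treated with agonist (100 nM, 300 nM, 1 uM) for 24 h. Firefly signal normalized to renilla; activity expressed relative to the RXR agonist LG268.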

Structure (SMILES) | HL-60 cells differentiation [1] | Activity at 300 nM [2]
CC1=C(/C=C/C(C)=C/C=C/C(C)=C/C(=O)O)C(C)(C)CCC1 [ATRA, all transretinoic acid, reference compound] | induced differentiation | –
Cc1c(N(CC(C)C)c2ccc(C(=O)O)c(N)c2)sc2c1C(C)(C)CCC2(C)C [Compound 79, 2-amino-4-[(2-methylpropyl) (3,4,4,7,7-pentamethyl-4,5,6,7-tetrahydro-1-benzothiophen-2-yl)amino]benzoic acid] | – | ***** (>0.6)
CCCS(=O)(=O)Nc1cc(N(CC(C)C)c2sc3c(c2C)C(C)(C)CCC3(C)C)ccc1C(=O)O [Compound 80, 4-[(2-methylpropyl) (3,4,4,7,7-pentamethyl-4,5,6,7-tetrahydro-1-benzothiophen-2-yl)amino]-2-[(propylsulfonyl)amino]benzoic acid] | – | *** (>0.4 and <0.5)
CCCN(c1ccc(C(=O)O)cn1)c1nc2c(s1)C(C)(C)C=CC2(C)C [Compound 81, 6-[propyl(4,4,7,7-tetramethyl-4,7-dihydro-1,3-benzothiazol-2-yl)amino]pyridine-3-carboxylic acid] | – | ***** (>0.6)
CC(C)CN(c1ccc(C(=O)O)cn1)c1nc2c(s1)C(C)(C)C=CC2(C)C [Compound 82, 6-[(2-methylpropyl) (4,4,7,7-tetramethyl-4,7-dihydro-1,3-benzothiazol-2-yl)amino]pyridine-3-carboxylic acid] | – | ***** (>0.6)
CC(C)CN(c1ccc(C(=O)O)cc1)c1nc2c(s1)C(C)(C)C=CC2(C)C [Compound 83, 4-[(2-methylpropyl) (4,4,7,7-tetramethyl-4,7-dihydro-1,3-benzothiazol-2-yl)amino]benzoic acid] | – | * (<0.3)
CC1(C)CCC(C)(C)c2sc(N(C(=O)C3CCC3)c3ccc(C(=O)O)cn3)nc21 [Compound 84, 6-[(cyclobutylcarbonyl) (4,4,7,7-tetramethyl-4,5,6,7-tetrahydro-1,3-benzothiazol-2-yl)amino]pyridine-3-carboxylic acid] | – | ** (>0.3 and <0.4)
CC(=O)N(c1ccc(C(=O)O)cn1)c1nc2c(s1)C(C)(C)CCC2(C)C [Compound 85, 6-[acetyl(4,4,7,7-tetramethyl-4,5,6,7-tetrahydro-1,3-benzothiazol-2-yl)amino]pyridine-3-carboxylic acid] | – | ** (>0.3 and <0.4)
CC1(C)CC(O)C(C)(C)c2nc(N(CC3CC3)c3ccc(C(=O)O)cn3)sc21 (stereo not shown) [Compound 86, 6-[(cyclopropylmethyl) (5-hydroxy-4,4,7,7-tetramethyl-4,5,6,7-tetrahydro-1,3-benzothiazol-2-yl)amino]pyridine-3-carboxylic acid] | – | ***** (>0.6)
COC1CC(C)(C)c2sc(N(CC3CC3)c3ccc(C(=O)O)cn3)nc2C1(C)C (stereo not shown) [Compound 87, 6-[(cyclopropylmethyl) (5-methoxy-4,4,7,7-tetramethyl-4,5,6,7-tetrahydro-1,3-benzothiazol-2-yl)amino]pyridine-3-carboxylic acid] | – | ***** (>0.6)
CC(C)CN(c1ccc(C(=O)O)cc1)c1nc2c(s1)C(C)(C)CC(C)(O)C2(C)C (stereo not shown) [Compound 88, 4-[(5-hydroxy-4,4,5,7,7-pentamethyl-4,5,6,7-tetrahydro-1,3-benzothiazol-2-yl) (2-methylpropyl)amino]benzoic acid] | – | ** (>0.3 and <0.4)
CC(C)CN(c1ccc(C(=O)O)cc1)c1nc2c(s1)C(C)(C)C/C(=N/O)C2(C)C [Compound 89, 4-{[(5Z)-5-(hydroxyimino)-4,4,7,7-tetramethyl-4,5,6,7-tetrahydro-1,3-benzothiazol-2-yl](2-methylpropyl)amino}benzoic acid] | – | ** (>0.3 and <0.4)
CC(C)CN(c1ccc(C(=O)O)cc1)c1nc2c(s1)C(C)(C)CC(NCc1ccccc1)C2(C)C (stereo not shown) [Compound 90, 4-{[5-(benzylamino)-4,4,7,7-tetramethyl-4,5,6,7-tetrahydro-1,3-benzothiazol-2-yl](2-methylpropyl)amino}benzoic acid] | – | ** (>0.3 and <0.4)
Cc1c(N(CC(C)C)c2ccc(C(=O)O)c(O)c2)sc2c1C(C)(C)CCC2(C)C [Compound 91, 2-hydroxy-4-[(2-methylpropyl) (3,4,4,7,7-pentamethyl-4,5,6,7-tetrahydro-1-benzothiophen-2-yl)amino]benzoic acid] | – | ***** (>0.6)
CC1(C)CCC(C)(C)c2sc(Nc3ccc(C(=O)O)cc3O)nc21 [Compound 92, 3-hydroxy-4-[(4,4,7,7-tetramethyl-4,5,6,7-tetrahydro-1,3-benzothiazol-2-yl)amino]benzoic acid] | – | * (<0.3)
CC1(C)CCC(C)(C)c2sc(C(=O)c3ccc(C(=O)O)nc3)nc21 [Compound 93, 5-[(4,4,7,7-tetramethyl-4,5,6,7-tetrahydro-1,3-benzothiazol-2-yl)carbonyl]pyridine-2-carboxylic acid] | – | * (<0.3)

Structure (SMILES) | HL-60 cells differentiation [1] | Activity at 300 nM [2]
C=C(c1ccc(C(=O)O)nc1)c1nc2c(s1)C(C)(C)CCC2(C)C [Compound 94, 5-[1-(4,4,7,7-tetramethyl-4,5,6,7-tetrahydro-1,3-benzothiazol-2-yl)ethenyl]pyridine-2-carboxylic acid] | – | ** (>0.3 and <0.4)
CC1(C)CCC(C)(C)c2sc(C(=O)c3ccc(C(=O)O)cn3)nc21 [Compound 95, 6-[(4,4,7,7-tetramethyl-4,5,6,7-tetrahydro-1,3-benzothiazol-2-yl)carbonyl]pyridine-3-carboxylic acid] | – | ** (>0.3 and <0.4)
CC1(C)CCC(C)(C)c2sc(C(C)(O)c3ccc(C(=O)O)cn3)nc21 (stereo not shown) [Compound 96, 6-[1-hydroxy-1-(4,4,7,7-tetramethyl-4,5,6,7-tetrahydro-1,3-benzothiazol-2-yl)ethyl]pyridine-3-carboxylic acid] | – | ** (>0.3 and <0.4)
C=C(c1ccc(C(=O)O)cc1)c1nc2c(s1)C(C)(C)CCC2(C)C [Compound 97, 4-[1-(4,4,7,7-tetramethyl-4,5,6,7-tetrahydro-1,3-benzothiazol-2-yl)ethenyl]benzoic acid] | – | ** (>0.3 and <0.4)
CC1(C)CCC(C)(C)c2sc(C3(c4ccc(C(=O)O)cc4)CC3)nc21 [Compound 98, 4-[1-(4,4,7,7-tetramethyl-4,5,6,7-tetrahydro-1,3-benzothiazol-2-yl)cyclopropyl]benzoic acid] | – | **** (>0.5 to <0.6)
CC1(C)CCC(C)(C)c2sc(N(c3ccc(C(=O)O)cn3)C3CCC3)nc21 [Compound 99, 6-[cyclobutyl(4,4,7,7-tetramethyl-4,5,6,7-tetrahydro-1,3-benzothiazol-2-yl)amino]pyridine-3-carboxylic acid] | – | ***** (>0.6)
CC1(C)CCC(C)(C)c2sc(N(c3ccccc3)c3ccc(C(=O)O)cc3)nc21 [Compound 100, 4-[phenyl(4,4,7,7-tetramethyl-4,5,6,7-tetrahydro-1,3-benzothiazol-2-yl)amino]benzoic acid] | – | ***** (>0.6)
CC1(C)CCC(C)(C)c2sc(N(c3ccc(C(=O)O)cc3)c3ccccn3)nc21 [Compound 101, 4-[pyridin-2-yl(4,4,7,7-tetramethyl-4,5,6,7-tetrahydro-1,3-benzothiazol-2-yl)amino]benzoic acid] | – | *** (>0.4 and <0.5)
Cc1c(N(c2ccccc2)c2ccc(C(=O)O)cc2)sc2c1C(C)(C)CCC2(C)C [Compound 102, 4-[(3,4,4,7,7-pentamethyl-4,5,6,7-tetrahydro-1-benzothiophen-2-yl) (phenyl)amino]benzoic acid] | – | ***** (>0.6)
Cc1c(N(c2ccc(C(=O)O)cc2)c2ccccn2)sc2c1C(C)(C)CCC2(C)C [Compound 103, 4-[(3,4,4,7,7-pentamethyl-4,5,6,7-tetrahydro-1-benzothiophen-2-yl) (pyridin-2-yl)amino]benzoic acid] | – | ***** (>0.6)
Cc1c(N(Cc2ccccn2)c2ccc(C(=O)O)cc2)sc2c1C(C)(C)CCC2(C)C [Compound 104, 4-[(3,4,4,7,7-pentamethyl-4,5,6,7-tetrahydro-1-benzothiophen-2-yl) (pyridin-2-ylmethyl)amino]benzoic acid] | – | * (<0.3)
CC1(C)CCC(C)(C)c2sc(N(CC3CC3)c3ccc(CC(=O)O)cc3)nc21 [Compound 105, {4-[(cyclopropylmethyl) (4,4,7,7-tetramethyl-4,5,6,7-tetrahydro-1,3-benzothiazol-2-yl)amino]phenyl}acetic acid] | – | ***** (>0.6)
CC1(C)CCC(C)(C)c2sc(N(CC3CC3)c3ccc(CCC(=O)O)cc3)nc21 [Compound 106, 3-{4-[(cyclopropylmethyl) (4,4,7,7-tetramethyl-4,5,6,7-tetrahydro-1,3-benzothiazol-2-yl)amino]phenyl}propanoic acid] | – | ***** (>0.6)
CC1(C)CCC(C)(C)c2sc(N(CC3CC3)c3ccc(/C=C/C(=O)O)cc3)nc21 [Compound 107] | – | ***** (>0.6)
CC1(C)CCC(C)(C)c2sc(N(CC3CC3)c3ccc(C4CC4C(=O)O)cc3)nc21 (stereo not shown) [Compound 108, 2-{4-[(cyclopropylmethyl) (4,4,7,7-tetramethyl-4,5,6,7-tetrahydro-1,3-benzothiazol-2-yl)amino]phenyl}cyclopropanecarboxylic acid] | – | ***** (>0.6)
